Data published in patent US20240245793A1, “PSD-95 INHIBITORS AND USES THEREOF” (priority 2021, published 2024).
Where two headings read alike, the source gives them in different places.

Test system: HeLa cells stably expressing HaloGFP
Test: Chloroalkane penetration assay (CAPA), membrane permeability and cellular uptake
Assay type: cell-based
From the text: Since PSD-95 is located intracellularly, it is essential for any drug targeting PSD-95 to efficiently cross the cell membrane. To assess the cellular permeability and delivery to the cytosol of the compounds as defined herein, the cellular chloroalkane penetration assay (CAPA) may be used (Peraro et al. 2018). This assay takes advantage of a modified haloalkane dehalogenase designed to covalently bind chloroalkane (CA) molecules. A HeLa cell line expressing a fusion protein comprising a HaloTag, a green fluorescent protein (GFP) and a mitochondria-targeting peptide is used to report cytosolic delivery. The general format of the CAPA is a pulse-chase assay (Deprey & Kritzer, 2020). Cells expressing the HaloTag enzyme are incubated with CA-tagged peptides. When these CA-peptides penetrate the cell membrane and reach the cytosol, they will bind to and react with the HaloTag (pulse step). Following a washing step, the cells are incubated with a CA-tagged dye that quantitatively penetrates the cell membrane and reacts with remaining unreacted HaloTag sites (chase step). Flow cytometry is used to measure the fluorescence intensity of the cells and the measured fluorescence is inversely proportional to the amount of CA-peptides that reach the penetrated the cells and can thus be used to assess cytosolic delivery. The obtained data is commonly expressed as CP50 values, the concentration at which 50% cell penetration is observed. The CP50 value of a compound may be measured as described in example 4.
The membrane permeability of compounds 10 to 75 was determined in HeLa cells stably expressing HaloGFP exclusively located in the cytosol. Cells were seeded at a density of 40.000 cells/well one day prior to the experiment. After the growth media was aspirated and replaced by 100 μL of Opti-MEM, 25 μL of a prepared serial dilution of the ligand in Opti-MEM was added to the cells (constant DMSO concentration), and the plate was incubated for 4 h at 37° C. and 5% CO2. The contents of the wells were aspirated, and cells were washed with fresh Opti-MEM for 15 min. After aspiration of the wash, the cells were incubated with TAMRA-CA (5 μM) for 15 min. After aspiration of the chase solution, cells were washed with Opti-MEM for 30 min. Following removal of the wash, cells were trypsinized, resuspended in PBS (2% FBS), and analyzed using a benchtop flow cytometer. Using no ligand and no TAMRA-CA control well, the obtained fluorescence intensity data was normalized and plotted as dose-response curves. Reported CP50 values represent half-maximum red fluorescence which behaves inverse to cell penetration of the ligand.

[1] = CA-tagged ligands, 4 h at 37° C., L-TAT and L-Arg9, mean ± SEM (Table 10, FIG. 7)

CP50 [µM]	SMILES	CP50 (CA-tagged NPEG4-(IETDV)2 with various CPP-tags, 4 h at 37° C., mean ± SEM (Table 11, FIG. 8)) [µM]	CP50 [1] [µM]
	CC[C@H](C)[C@H](NC(=O)CCOCCOCCN(CCOCCOCCC(=O)N[C@H](C(=O)N[C@@H](CCC(=O)O)C(=O)N[C@H](C(=O)N[C@@H](CC(=O)O)C(=O)N[C@H](C(=O)O)C(C)C)[C@@H](C)O)[C@@H](C)CC)C(=O)[C@H](CCCNC(=N)N)NC(=O)[C@H](CCCNC(=N)N)NC(=O)[C@H](CCCNC(=N)N)NC(=O)[C@H](CCC(N)=O)NC(=O)[C@H](CCCNC(=N)N)NC(=O)[C@H](CCCNC(=N)N)NC(=O)[C@H](CCCCN)NC(=O)[C@H](CCCCN)NC(=O)[C@H](CCCNC(=N)N)NC(=O)CNC(=O)[C@H](Cc1ccc(O)cc1)NC(=O)CCC(=O)NCCOCCOCCCCCCCl)C(=O)N[C@@H](CCC(=O)O)C(=O)N[C@H](C(=O)N[C@@H](CC(=O)O)C(=O)N[C@H](C(=O)O)C(C)C)[C@@H](C)O [Compound 10]	55.1 ± 3.0	55.1 ± 3.0
	CC(C)C[C@H](NC(=O)[C@@H](NC(=O)[C@H](CCC(=O)O)NC(=O)[C@H](CCCCN)NC(=O)CCOCCOCCN(CCOCCOCCC(=O)N[C@@H](CCCCN)C(=O)N[C@@H](CCC(=O)O)C(=O)N[C@H](C(=O)N[C@@H](CC(C)C)C(=O)N[C@H](C(=O)O)C(C)C)[C@@H](C)O)C(=O)[C@H](CCCNC(=N)N)NC(=O)[C@H](CCCNC(=N)N)NC(=O)[C@H](CCCNC(=N)N)NC(=O)[C@H](CCC(N)=O)NC(=O)[C@H](CCCNC(=N)N)NC(=O)[C@H](CCCNC(=N)N)NC(=O)[C@H](CCCCN)NC(=O)[C@H](CCCCN)NC(=O)[C@H](CCCNC(=N)N)NC(=O)CNC(=O)[C@H](Cc1ccc(O)cc1)NC(=O)CCC(=O)NCCOCCOCCCCCCCl)[C@@H](C)O)C(=O)N[C@H](C(=O)O)C(C)C [Compound 12]		72.5 ± 4.4
	CC(C)[C@H](NC(=O)[C@@H](NC(=O)[C@@H](NC(=O)[C@H](CCC(=O)O)NC(=O)[C@H](CCCCN)NC(=O)CCOCCOCCN(CCOCCOCCC(=O)N[C@@H](CCCCN)C(=O)N[C@@H](CCC(=O)O)C(=O)N[C@H](C(=O)N[C@H](C(=O)N[C@H](C(=O)O)C(C)C)[C@@H](C)O)[C@@H](C)O)C(=O)[C@H](CCCNC(=N)N)NC(=O)[C@H](CCCNC(=N)N)NC(=O)[C@H](CCCNC(=N)N)NC(=O)[C@H](CCC(N)=O)NC(=O)[C@H](CCCNC(=N)N)NC(=O)[C@H](CCCNC(=N)N)NC(=O)[C@H](CCCCN)NC(=O)[C@H](CCCCN)NC(=O)[C@H](CCCNC(=N)N)NC(=O)CNC(=O)[C@H](Cc1ccc(O)cc1)NC(=O)CCC(=O)NCCOCCOCCCCCCCl)[C@@H](C)O)[C@@H](C)O)C(=O)O [Compound 14]		78.4 ± 3.9
	CC(C)[C@H](NC(=O)[C@@H](NC(=O)[C@@H](NC(=O)[C@H](CCC(=O)O)NC(=O)[C@H](CCCCN)NC(=O)CCOCCOCCN(CCOCCOCCC(=O)N[C@@H](CCCCN)C(=O)N[C@@H](CCC(=O)O)C(=O)N[C@H](C(=O)N[C@H](C(=O)N[C@H](C(=O)O)C(C)C)C(C)C)[C@@H](C)O)C(=O)[C@H](CCCNC(=N)N)NC(=O)[C@H](CCCNC(=N)N)NC(=O)[C@H](CCCNC(=N)N)NC(=O)[C@H](CCC(N)=O)NC(=O)[C@H](CCCNC(=N)N)NC(=O)[C@H](CCCNC(=N)N)NC(=O)[C@H](CCCCN)NC(=O)[C@H](CCCCN)NC(=O)[C@H](CCCNC(=N)N)NC(=O)CNC(=O)[C@H](Cc1ccc(O)cc1)NC(=O)CCC(=O)NCCOCCOCCCCCCCl)[C@@H](C)O)C(C)C)C(=O)O [Compound 16]		81.8 ± 1.2
	CC(C)[C@H](NC(=O)[C@H](CCCNC(=N)N)NC(=O)[C@@H](NC(=O)[C@H](CCC(=O)O)NC(=O)[C@H](CCCCN)NC(=O)CCOCCOCCN(CCOCCOCCC(=O)N[C@@H](CCCCN)C(=O)N[C@@H](CCC(=O)O)C(=O)N[C@H](C(=O)N[C@@H](CCCNC(=N)N)C(=O)N[C@H](C(=O)O)C(C)C)[C@@H](C)O)C(=O)[C@H](CCCNC(=N)N)NC(=O)[C@H](CCCNC(=N)N)NC(=O)[C@H](CCCNC(=N)N)NC(=O)[C@H](CCC(N)=O)NC(=O)[C@H](CCCNC(=N)N)NC(=O)[C@H](CCCNC(=N)N)NC(=O)[C@H](CCCCN)NC(=O)[C@H](CCCCN)NC(=O)[C@H](CCCNC(=N)N)NC(=O)CNC(=O)[C@H](Cc1ccc(O)cc1)NC(=O)CCC(=O)NCCOCCOCCCCCCCl)[C@@H](C)O)C(=O)O [Compound 18]		47.7 ± 1.0
	CC[C@H](C)[C@H](NC(=O)CCOCCOCCN(CCOCCOCCC(=O)N[C@H](C(=O)N[C@@H](CO)C(=O)N[C@H](C(=O)N[C@@H](CC(=O)O)C(=O)N[C@H](C(=O)O)C(C)C)[C@@H](C)O)[C@@H](C)CC)C(=O)[C@H](CCCNC(=N)N)NC(=O)[C@H](CCCNC(=N)N)NC(=O)[C@H](CCCNC(=N)N)NC(=O)[C@H](CCC(N)=O)NC(=O)[C@H](CCCNC(=N)N)NC(=O)[C@H](CCCNC(=N)N)NC(=O)[C@H](CCCCN)NC(=O)[C@H](CCCCN)NC(=O)[C@H](CCCNC(=N)N)NC(=O)CNC(=O)[C@H](Cc1ccc(O)cc1)NC(=O)CCC(=O)NCCOCCOCCCCCCCl)C(=O)N[C@@H](CO)C(=O)N[C@H](C(=O)N[C@@H](CC(=O)O)C(=O)N[C@H](C(=O)O)C(C)C)[C@@H](C)O [Compound 20]		41.9 ± 1.6
	CC(C)[C@H](NC(=O)[C@@H](NC(=O)[C@@H](NC(=O)[C@H](CCC(=O)O)NC(=O)[C@@H](NC(=O)CCOCCOCCN(CCOCCOCCC(=O)N[C@H](C(=O)N[C@@H](CCC(=O)O)C(=O)N[C@H](C(=O)N[C@H](C(=O)N[C@H](C(=O)O)C(C)C)C(C)C)[C@@H](C)O)C(C)C)C(=O)[C@H](CCCNC(=N)N)NC(=O)[C@H](CCCNC(=N)N)NC(=O)[C@H](CCCNC(=N)N)NC(=O)[C@H](CCC(N)=O)NC(=O)[C@H](CCCNC(=N)N)NC(=O)[C@H](CCCNC(=N)N)NC(=O)[C@H](CCCCN)NC(=O)[C@H](CCCCN)NC(=O)[C@H](CCCNC(=N)N)NC(=O)CNC(=O)[C@H](Cc1ccc(O)cc1)NC(=O)CCC(=O)NCCOCCOCCCCCCCl)C(C)C)[C@@H](C)O)C(C)C)C(=O)O [Compound 22]		86.1 ± 4.5
0.78 ± 0.05	CC(C)C[C@H](NC(=O)[C@@H](NC(=O)[C@H](CCC(=O)O)NC(=O)[C@H](CCCCN)NC(=O)CCOCCOCCN(CCOCCOCCC(=O)N[C@@H](CCCCN)C(=O)N[C@@H](CCC(=O)O)C(=O)N[C@H](C(=O)N[C@@H](CC(C)C)C(=O)N[C@H](C(=O)O)C(C)C)[C@@H](C)O)C(=O)[C@H](CCCNC(=N)N)NC(=O)[C@H](CCCNC(=N)N)NC(=O)[C@H](CCCNC(=N)N)NC(=O)[C@H](CCCNC(=N)N)NC(=O)[C@H](CCCNC(=N)N)NC(=O)[C@H](CCCNC(=N)N)NC(=O)[C@H](CCCNC(=N)N)NC(=O)[C@H](CCCNC(=N)N)NC(=O)[C@H](CCCNC(=N)N)NC(=O)CCC(=O)NCCOCCOCCCCCCCl)[C@@H](C)O)C(=O)N[C@H](C(=O)O)C(C)C [Compound 24]		
0.74 ± 0.09	CC(C)[C@H](NC(=O)[C@@H](NC(=O)[C@@H](NC(=O)[C@H](CCC(=O)O)NC(=O)[C@H](CCCCN)NC(=O)CCOCCOCCN(CCOCCOCCC(=O)N[C@@H](CCCCN)C(=O)N[C@@H](CCC(=O)O)C(=O)N[C@H](C(=O)N[C@H](C(=O)N[C@H](C(=O)O)C(C)C)[C@@H](C)O)[C@@H](C)O)C(=O)[C@H](CCCNC(=N)N)NC(=O)[C@H](CCCNC(=N)N)NC(=O)[C@H](CCCNC(=N)N)NC(=O)[C@H](CCCNC(=N)N)NC(=O)[C@H](CCCNC(=N)N)NC(=O)[C@H](CCCNC(=N)N)NC(=O)[C@H](CCCNC(=N)N)NC(=O)[C@H](CCCNC(=N)N)NC(=O)[C@H](CCCNC(=N)N)NC(=O)CCC(=O)NCCOCCOCCCCCCCl)[C@@H](C)O)[C@@H](C)O)C(=O)O [Compound 26]		
0.79 ± 0.06	CC(C)[C@H](NC(=O)[C@@H](NC(=O)[C@@H](NC(=O)[C@H](CCC(=O)O)NC(=O)[C@H](CCCCN)NC(=O)CCOCCOCCN(CCOCCOCCC(=O)N[C@@H](CCCCN)C(=O)N[C@@H](CCC(=O)O)C(=O)N[C@H](C(=O)N[C@H](C(=O)N[C@H](C(=O)O)C(C)C)C(C)C)[C@@H](C)O)C(=O)[C@H](CCCNC(=N)N)NC(=O)[C@H](CCCNC(=N)N)NC(=O)[C@H](CCCNC(=N)N)NC(=O)[C@H](CCCNC(=N)N)NC(=O)[C@H](CCCNC(=N)N)NC(=O)[C@H](CCCNC(=N)N)NC(=O)[C@H](CCCNC(=N)N)NC(=O)[C@H](CCCNC(=N)N)NC(=O)[C@H](CCCNC(=N)N)NC(=O)CCC(=O)NCCOCCOCCCCCCCl)[C@@H](C)O)C(C)C)C(=O)O [Compound 28]		
